Data reported in patent US4100346A, “Certain 7(o-amino-methyl- or methylaminomethylphenyl- or cyclohexadienyl- or thienylacetamide)-3[1-carboxymethyl-(or ethyl- or propyl-)-tetrazol-5-ylthiomethyl]-3-cephem-4-carboxylic acids” (Bristol-Myers Company, priority 1976, dated 1978).
Converted amounts (≈) assume the structure as drawn. Read-outs that look alike come from different tables or passages of the source.

Key:
Clostridium sp. = test: microbe, parasite or virus in culture; type: cell-based
Procedure: Antibiotic spectrum. […] Procedures were as follows:
c. Obligate anaerobes. The assay was performed on solid medium, consisting of Brain Heart Infusion Broth (BBL) supplemented with 5% defibrinated sheep blood and 1% Ionagar (Colab).

Enterobacter aerogenes = test: Minimum growth inhibitory and bactericidal concentrations for Enterobacteriaceae; type: cell-based; settings: Klebsiella aerogenes, inoculum 10^4 cells; for MBC: read-out: MBC, minimum bactericidal concentration; for MIC: read-out: MIC, Minimum growth inhibitory concentration
Description: (§1) Miscellaneous. Methods for determining bactericidal activity and susceptibility to cell-free β-lactamase were those previously used; Leitner et al., BL-S640, A Cephalosporin With a Broad Spectrum of Antibacterial Activity: Properties in vitro, Antimicrob. Agents Chemother. 7:298-305 (1975).
(§2) *MIC, Minimum growth inhibitory concentration; MBC, minimum bactericidal
(§3) concentration; expressed as micrograms per milliliter. The inoculum was […]

Enterobacter cloacae [1] = test: as above; type: cell-based; settings: for MBC: read-out: MBC, minimum bactericidal concentration; for MIC: read-out: MIC, Minimum growth inhibitory concentration
Description: as §1, §2, §3

Escherichia coli = test: as above; type: cell-based; settings: for MBC: read-out: MBC, minimum bactericidal concentration; for MIC: read-out: MIC, Minimum growth inhibitory concentration
Description: as §1, §2, §3

Klebsiella pneumoniae = test: as above; type: cell-based; settings: for MBC: read-out: MBC, minimum bactericidal concentration; for MIC: read-out: MIC, Minimum growth inhibitory concentration
Description: as §1, §2, §3

Proteus mirabilis = test: as above; type: cell-based; settings: for MBC: read-out: MBC, minimum bactericidal concentration; for MIC: read-out: MIC, Minimum growth inhibitory concentration
Description: as §1, §2, §3

Proteus rettgeri [2] = test: as above; type: cell-based; settings: Providencia rettgeri, inoculum 10^4 cells; for MBC: read-out: MBC, minimum bactericidal concentration; for MIC: read-out: MIC, Minimum growth inhibitory concentration
Description: as §1, §2, §3

Proteus vulgaris [3] = test: as above; type: cell-based; settings: inoculum 10^4 cells; for MIC: read-out: MIC, Minimum growth inhibitory concentration; for MBC: read-out: MBC, minimum bactericidal concentration
Description: as §1, §2, §3

[4] = biological target: staphylococcal β-lactamase, Staphylococcus aureus A9606 (Staphylococcus aureus, UniProt P00807); test: Hydrolysis by β-lactamase in cell-free extracts; type: biochemical; settings: cell-free extract
staphylococcal β-lactamase, Staphylococcus aureus A9606, sequence (P00807 25-281): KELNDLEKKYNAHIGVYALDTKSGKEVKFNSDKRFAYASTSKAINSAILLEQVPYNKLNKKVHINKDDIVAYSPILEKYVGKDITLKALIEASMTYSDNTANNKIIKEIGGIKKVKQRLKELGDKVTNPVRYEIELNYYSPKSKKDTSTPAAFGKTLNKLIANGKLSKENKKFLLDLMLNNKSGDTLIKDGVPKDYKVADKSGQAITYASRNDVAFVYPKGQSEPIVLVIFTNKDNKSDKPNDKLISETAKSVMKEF
Procedure: as §1
Susceptibility to β-lactamase. Susceptibility to enzymic hydrolysis was assessed by determining relative rates of hydrolysis by cell-free preparations of various β-lactamases (Table 6). BL-S786 was slightly to markedly less susceptible than the other cephalosporins to hydrolysis by β-lactamases of Type Ia, Ib, IIIa and IVa. All cephalosporins were poor substrates for Type IIa and staphylococcal β-lactamases. The four cephalosporins were hydrolyzed at similar rates by the Type IVb enzyme.

Enterobacter cloacae [5] = test: Intramuscular treatment of systemically infected mice; type: in vivo; settings: mice, intramuscular; compared with control cephalosporins
Description: Treatment of Systemically Infected Mice. The procedures were identical with those published previously [Leitner et al., BL-S640, a Cephalosporin With a Broad Spectrum of Antibacterial Activity: Bioavailability and Therapeutic Properties in Rodents, Antimicrob. Agents Chemother.
(a) the hog gastric mucin used in infections with Staphylococcus aureus No. 2 was purchased from American Laboratories, Inc., Omaha, Neb.

Arizona hinshawii = test: Growth inhibitory activity, antibiotic dilution technique; settings: Salmonella enterica, read-out: Minimum inhibitory concentration
Serratia marcescens = test: as above; settings: read-out: Minimum inhibitory concentration
Pseudomonas aeruginosa = test: as above; settings: read-out: Minimum inhibitory concentration
Alcaligenes sp. = test: as above
Providencia stuartii = test: as above; settings: Providencia stuartii strains; at a concentration of 16 mcg./ml.
Proteus rettgeri [6] = test: as above; settings: Providencia rettgeri, read-out: percent of strains inhibited
Haemophilus influenzae = test: as above; settings: including 9 ampicillin-resistant strains
Proteus vulgaris [7] = test: Effect of inoculum size on susceptibility of Enterobacteriaceae
[8] = Enterobacter aerogenes strain 1
[9] = Enterobacter aerogenes strain 2
[10] = Enterobacter aerogenes strain 3
[11] = Enterobacter cloacae strain 3, inoculum 10^4 cells
[12] = Enterobacter cloacae strain 4, inoculum 10^4 cells
[13] = Enterobacter cloacae strain 8, inoculum 10^4 cells
[14] = Escherichia coli strain 1, inoculum 10^4 cells
[15] = Escherichia coli strain 2, inoculum 10^4 cells
[16] = Escherichia coli strain 3, inoculum 10^4 cells
[17] = Escherichia coli strain 4, inoculum 10^4 cells
[18] = Escherichia coli strain 5, inoculum 10^4 cells
[19] = Escherichia coli strain 6, inoculum 10^4 cells
[20] = Klebsiella pneumoniae strain 1, inoculum 10^4 cells
[21] = Klebsiella pneumoniae strain 2, inoculum 10^4 cells
[22] = Klebsiella pneumoniae strain 3, inoculum 10^4 cells
[23] = Klebsiella pneumoniae strain 4, inoculum 10^4 cells
[24] = Klebsiella pneumoniae strain 5, inoculum 10^4 cells
[25] = Klebsiella pneumoniae strain 6, inoculum 10^4 cells
[26] = Proteus mirabilis strain 1, inoculum 10^4 cells
[27] = Proteus mirabilis strain 2, inoculum 10^4 cells
[28] = Proteus mirabilis strain 3, inoculum 10^4 cells
[29] = Proteus mirabilis strain 4, inoculum 10^4 cells
[30] = Proteus mirabilis strain 5, inoculum 10^4 cells
[31] = Proteus vulgaris, Proteus vulgaris strain 2
[32] = Proteus vulgaris, Proteus vulgaris strain 4

NCc1ccccc1CC(=O)N[C@@H]1C(=O)N2C(C(=O)O)=C(CSc3nnnn3CC(=O)O)CS[C@H]12 [Example 1]
MIC (Clostridium sp.; 48 h, read-out: concentration inhibiting all strains): 2 µg/mL (≈ 3.85 µM) | MIC (Clostridium sp.; read-out: Minimum inhibitory concentration): 2 µg/mL (≈ 3.85 µM) | MBC (Enterobacter aerogenes; [8]): 2 µg/mL (≈ 3.85 µM) | MIC (Enterobacter aerogenes; [8]): 2 µg/mL (≈ 3.85 µM) | MBC (Enterobacter aerogenes; [9]): 2 µg/mL (≈ 3.85 µM) | MIC (Enterobacter aerogenes; [9]): 2 µg/mL (≈ 3.85 µM) | MBC (Enterobacter aerogenes; [10]): 16 µg/mL (≈ 30.8 µM) | MIC (Enterobacter aerogenes; [10]): 8 µg/mL (≈ 15.4 µM) | MBC (Enterobacter cloacae [1]; [11]): 8 µg/mL (≈ 15.4 µM) | MIC (Enterobacter cloacae [1]; [11]): 4 µg/mL (≈ 7.7 µM) | MBC (Enterobacter cloacae [1]; [12]): 63 µg/mL (≈ 121 µM) | MIC (Enterobacter cloacae [1]; [12]): 8 µg/mL (≈ 15.4 µM) | MBC (Enterobacter cloacae [1]; [13]): 63 µg/mL (≈ 121 µM) | MIC (Enterobacter cloacae [1]; [13]): 63 µg/mL (≈ 121 µM) | MBC (Escherichia coli; [14]): 0.5 µg/mL (≈ 0.962 µM) | MIC (Escherichia coli; [14]): 0.5 µg/mL (≈ 0.962 µM) | MBC (Escherichia coli; [15]): 16 µg/mL (≈ 30.8 µM) | MIC (Escherichia coli; [15]): 16 µg/mL (≈ 30.8 µM) | MBC (Escherichia coli; [16]): 0.5 µg/mL (≈ 0.962 µM) | MIC (Escherichia coli; [16]): 0.25 µg/mL (≈ 0.481 µM) | MBC (Escherichia coli; [17]): 0.5 µg/mL (≈ 0.962 µM) | MIC (Escherichia coli; [17]): 0.5 µg/mL (≈ 0.962 µM) | MBC (Escherichia coli; [18]): 1 µg/mL (≈ 1.92 µM) | MIC (Escherichia coli; [18]): 1 µg/mL (≈ 1.92 µM) | MBC (Escherichia coli; [19]): 1 µg/mL (≈ 1.92 µM) | MIC (Escherichia coli; [19]): 1 µg/mL (≈ 1.92 µM) | MBC (Klebsiella pneumoniae; [20]): 0.25 µg/mL (≈ 0.481 µM) | MIC (Klebsiella pneumoniae; [20]): 0.25 µg/mL (≈ 0.481 µM) | MBC (Klebsiella pneumoniae; [21]): 0.25 µg/mL (≈ 0.481 µM) | MIC (Klebsiella pneumoniae; [21]): 0.25 µg/mL (≈ 0.481 µM) | MBC (Klebsiella pneumoniae; [22]): 0.25 µg/mL (≈ 0.481 µM) | MIC (Klebsiella pneumoniae; [22]): 0.25 µg/mL (≈ 0.481 µM) | MBC (Klebsiella pneumoniae; [23]): 0.5 µg/mL (≈ 0.962 µM) | MIC (Klebsiella pneumoniae; [23]): 0.5 µg/mL (≈ 0.962 µM) | MBC (Klebsiella pneumoniae; [24]): 0.5 µg/mL (≈ 0.962 µM) | MIC (Klebsiella pneumoniae; [24]): 0.5 µg/mL (≈ 0.962 µM) | MBC (Klebsiella pneumoniae; [25]): 1 µg/mL (≈ 1.92 µM) | MIC (Klebsiella pneumoniae; [25]): 0.5 µg/mL (≈ 0.962 µM) | MBC (Proteus mirabilis; [26]): 1 µg/mL (≈ 1.92 µM) | MIC (Proteus mirabilis; [26]): 0.5 µg/mL (≈ 0.962 µM) | MBC (Proteus mirabilis; [27]): 0.5 µg/mL (≈ 0.962 µM) | MIC (Proteus mirabilis; [27]): 0.5 µg/mL (≈ 0.962 µM) | MBC (Proteus mirabilis; [28]): 0.5 µg/mL (≈ 0.962 µM) | MIC (Proteus mirabilis; [28]): 0.5 µg/mL (≈ 0.962 µM) | MBC (Proteus mirabilis; [29]): 0.5 µg/mL (≈ 0.962 µM) | MIC (Proteus mirabilis; [29]): 0.25 µg/mL (≈ 0.481 µM) | MBC (Proteus mirabilis; [30]): 0.5 µg/mL (≈ 0.962 µM) | MIC (Proteus mirabilis; [30]): 0.5 µg/mL (≈ 0.962 µM) | MBC (Proteus rettgeri [2]; Proteus rettgeri strain 2): 0.13 µg/mL (≈ 0.25 µM) | MIC (Proteus rettgeri [2]; Proteus rettgeri strain 2): 0.063 µg/mL (≈ 0.121 µM) | MBC (Proteus rettgeri [2]; Proteus rettgeri strain 3): 63 µg/mL (≈ 121 µM) | MIC (Proteus rettgeri [2]; Proteus rettgeri strain 3): 0.25 µg/mL (≈ 0.481 µM) | MIC (Proteus vulgaris [3]; Proteus vulgaris strain 1): 0.5 µg/mL (≈ 0.962 µM) | MBC (Proteus vulgaris [3]; Proteus vulgaris, Proteus vulgaris strain 1): 1 µg/mL (≈ 1.92 µM) | MBC (Proteus vulgaris [3]; [31]): 0.5 µg/mL (≈ 0.962 µM) | MIC (Proteus vulgaris [3]; [31]): 0.5 µg/mL (≈ 0.962 µM) | MBC (Proteus vulgaris [3]; [32]): 1 µg/mL (≈ 1.92 µM) | MIC (Proteus vulgaris [3]; [32]): 0.5 µg/mL (≈ 0.962 µM) | Relative Rate of Hydrolysis (benzylpenicillin = 100) [4]: < 0.5 | efficacy against infections with Enterobacter cloacae (Enterobacter cloacae [5]): alone was effective | MIC (Arizona hinshawii): 0.13 µg/mL (≈ 0.25 µM) | MIC (Serratia marcescens): > 125 µg/mL | MIC (Pseudomonas aeruginosa): > 125 µg/mL | MIC (Alcaligenes sp.; read-out: Minimum inhibitory concentration, Alcaligenes sp., 2 strains, geometric mean when applicable): 63 µg/mL (≈ 121 µM) | MIC (Alcaligenes sp.; read-out: Minimum inhibitory concentration, Alcaligenes sp., 4 strains, geometric mean when applicable): > 125 µg/mL | MIC (Alcaligenes sp.; read-out: Minimum inhibitory concentration, Alcaligenes sp., 5 strains, geometric mean when applicable): 2.6 µg/mL (≈ 5 µM) | percent of strains inhibited (Providencia stuartii): Ninety-eight | inhibition at 16 µg/mL (Proteus rettgeri [6]): 78% | relative activity against Haemophilus influenzae (Haemophilus influenzae): about equally active | MIC (Proteus vulgaris [7]; read-out: Minimum Inhibitory Concentration, Proteus vulgaris strain 1, A, Inoculum of 10^2 organisms): 1 µg/mL (≈ 1.92 µM) | MIC (Proteus vulgaris [7]; read-out: Minimum Inhibitory Concentration, Proteus vulgaris strain 1, B, Inoculum of 10^6 organisms): 4 µg/mL (≈ 7.7 µM) | MIC (Proteus vulgaris [7]; read-out: Minimum Inhibitory Concentration, Proteus vulgaris strain 2, A, Inoculum of 10^2 organisms): 1 µg/mL (≈ 1.92 µM) | MIC (Proteus vulgaris [7]; read-out: Minimum Inhibitory Concentration, Proteus vulgaris strain 2, B, Inoculum of 10^6 organisms): 8 µg/mL (≈ 15.4 µM) | MIC (Proteus vulgaris [7]; read-out: Minimum Inhibitory Concentration, Proteus vulgaris strain 4, A, Inoculum of 10^2 organisms): 1 µg/mL (≈ 1.92 µM) | MIC (Proteus vulgaris [7]; read-out: Minimum Inhibitory Concentration, Proteus vulgaris strain 4, B, Inoculum of 10^6 organisms): 8 µg/mL (≈ 15.4 µM)
